According to patent US12655107B2 (The United States of America, as represented by the …, priority 2018, dated 2026):

Tests used:
[1] = test system: pBR322 DNA; test: Top1-mediated unwinding assay; assay type: biochemical; conditions: supercoiled or relaxed pBR322 DNA, excess Top1, 19a up to 9 μM
Protocol: The binding of classical DNA intercalators between the base pair of circular DNA produce Top1-mediated unwinding effect, thereby antagonizing Top1-mediated DNA relaxation. […]. […] […]. The reaction mixture (20 μL) contained supercoiled or relaxed pBR322 DNA (0.5 μg), tested compounds and excess Top1 (10 units) in relaxing buffer (10 mM Tris, pH 7.5, 0.1 mM EDTA, 5 mM MgCl2, 50 mM KCl, 1 mM DTT, 15 μg/mL acetylated BSA). The DNA was incubated with the tested compounds at room temperature for 10 min prior to the addition of Top1. After being incubated for 30 min at 37° C., the reaction was terminated by the addition of […] loading buffer. The results were analyzed using 1% agarose gel in TAE buffer at 5 V/cm. The gel was stained with gel red and visualized with a UV transilluminator.

[2] = test system: γH2AX foci in HCT116 cells; test: γH2AX detection by immunofluorescence; assay type: cell-based, human; conditions: HCT116, 1 μM, 3 h
Protocol: To evaluate the DNA damaging effect of 50 in cancer cells, γH2AX foci were assessed by immunofluorescence microscopy in human […] HCT116 cells. After incubation with the compounds for 3 h, the HCT116 cells were stained with γH2AX antibodies.
HCT116 cells (2×10^4 cells/mL) were grown in culture medium and treated with compounds for 3 h at 37° C. […] Cells were permeabilized with 0.5% Triton X-100 in PBS at 0° C. for 30 min. Dish was blocked with 5% goat serum/PBS at 37° C. for 3 h. […] The dishes were again washed six times with blocking buffer. Digital images were recorded using an LSM710 microscope (Zeiss, Germany) and analyzed with ZEN software.

[3] = test system: HCT116 cells; test: Flow cytometry apoptosis assay; assay type: cell-based, human; conditions: HCT116, 24 h, 0.5, 1 and 2 μM
Protocol: To evaluate the induction of apoptosis by 50, flow cytometry assays were performed in HCT116 cells.
The stained cells were analyzed by using flow cytometry (BD, FACSCalibur, USA) within I h. The experiments were repeated three times independently.

[4] = Pharmacokinetic study in rat; conditions: SD rats, i.g. 5 mg/kg
Protocol: The SD rats were divided into two groups (n=3) and treated by intravenous injection (i.v.) at 1 mg/kg dose and intragastrical administration (i.g.) at 5 mg/kg dose, respectively.
A pharmacokinetic (PK) study in vivo of 50 was performed in Sprague-Dawley (SD) rats. The SD rats were randomly divided into two groups […] and treated by intravenous injection (iv) at 1 mg/kg dose or an intragastrical administration (ig) at 5 mg/kg dose, respectively. Plasma samples were collected postdosing and the concentration of 50 was measured.
Plasma samples (100 μL) were obtained after centrifugation for 10 min at 3000 rpm and stored at −20° C. until used for analysis. The plasma was detected through LC-MS-MS.

[5] = test system: HCT116 xenograft; test: In vivo antitumor activity, HCT116 xenograft; conditions: HCT116 xenograft
[6] = molecular target: T1, Top1 (Homo sapiens, UniProt P11387); test: Top1-mediated DNA cleavage assay; assay type: biochemical; conditions: semi-quantitative score relative to CPT (1) at 1 μM; tested at 0.1-100 μM
T1 sequence (P11387 1-765): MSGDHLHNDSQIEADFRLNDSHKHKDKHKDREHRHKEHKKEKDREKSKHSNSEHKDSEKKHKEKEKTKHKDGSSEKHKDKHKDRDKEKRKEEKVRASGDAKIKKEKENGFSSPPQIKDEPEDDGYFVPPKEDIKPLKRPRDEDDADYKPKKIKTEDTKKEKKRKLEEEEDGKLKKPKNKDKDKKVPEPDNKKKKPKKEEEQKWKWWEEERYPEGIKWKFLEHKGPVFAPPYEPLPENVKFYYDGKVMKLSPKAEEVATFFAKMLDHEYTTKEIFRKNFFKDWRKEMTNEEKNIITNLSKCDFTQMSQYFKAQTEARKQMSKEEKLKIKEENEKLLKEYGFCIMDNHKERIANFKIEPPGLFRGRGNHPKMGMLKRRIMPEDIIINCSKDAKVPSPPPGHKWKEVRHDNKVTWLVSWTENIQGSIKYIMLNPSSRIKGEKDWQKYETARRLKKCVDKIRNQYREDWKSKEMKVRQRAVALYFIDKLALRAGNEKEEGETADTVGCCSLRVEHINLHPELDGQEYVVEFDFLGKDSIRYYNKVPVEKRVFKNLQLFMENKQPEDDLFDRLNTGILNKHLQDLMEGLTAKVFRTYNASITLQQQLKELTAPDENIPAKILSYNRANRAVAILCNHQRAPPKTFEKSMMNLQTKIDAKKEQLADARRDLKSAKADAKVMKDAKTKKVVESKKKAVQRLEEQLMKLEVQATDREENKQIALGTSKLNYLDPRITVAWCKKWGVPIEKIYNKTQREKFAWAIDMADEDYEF

[7] = molecular target: T2, Tdp1 (Homo sapiens, UniProt Q9NUW8); test: Tdp1 inhibition fluorescence assay; assay type: biochemical; conditions: compounds at 100 μM
T2 sequence (Q9NUW8 whole entry): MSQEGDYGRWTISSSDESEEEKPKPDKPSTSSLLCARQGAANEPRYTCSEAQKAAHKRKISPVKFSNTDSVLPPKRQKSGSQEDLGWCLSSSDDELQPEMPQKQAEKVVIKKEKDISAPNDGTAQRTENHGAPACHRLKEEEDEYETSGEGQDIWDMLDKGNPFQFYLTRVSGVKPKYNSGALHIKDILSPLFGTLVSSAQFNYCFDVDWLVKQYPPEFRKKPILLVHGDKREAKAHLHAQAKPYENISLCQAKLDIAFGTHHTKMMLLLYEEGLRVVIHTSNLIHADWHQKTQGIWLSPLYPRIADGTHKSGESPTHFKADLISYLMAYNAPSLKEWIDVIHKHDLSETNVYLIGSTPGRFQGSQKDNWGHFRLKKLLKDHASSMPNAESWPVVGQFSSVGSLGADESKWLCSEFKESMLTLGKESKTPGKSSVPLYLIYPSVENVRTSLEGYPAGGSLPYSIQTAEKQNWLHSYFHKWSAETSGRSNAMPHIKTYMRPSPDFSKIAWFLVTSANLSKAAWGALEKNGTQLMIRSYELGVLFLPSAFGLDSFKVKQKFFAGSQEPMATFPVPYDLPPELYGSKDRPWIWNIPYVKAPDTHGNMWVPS
Protocol: Tdp Inhibition. […] The compounds were tested at 100 μM concentration. […] Fluorescence assay. […] Tdp1 solution (20 μL/well, 0.02 μL purified Tdp1 (100 nM) in 10 mM Tris-HCl, pH 7.5, 50 mM KCL, I mM EDTA, 1 mM DTT) was dispensed into wells of a white 384-well plate (NEST). The tested compound solution in DMSO (5 μL) was pinned into assay plates and incubated at room temperature for 30 min. […] Tdp percentage inhibition of the tested compounds was calculated by comparing the rate of increase in fluorescence throughout time for the compound-treated wells to that of DMSO control wells.

[8] = test system: F10T dsDNA; test: FRET melting assay; assay type: binding; conditions: compounds at 2 μM
Protocol: It was reported that nitidine can intercalate into double-stranded DNA (dsDNA) and inhibit Top1. […] The DNA intercalator 49 was used as positive control.
FRET melting assay was carried out on a real-time PCR apparatus as the following methods. […] In the experiment, the annealed oligonucleotide (final concentration of 0.4 μM) were incubated with the tested compounds (2 μM) in a total reaction volume of Tris-HCl buffer (10 mM, pH 7.4) containing 60 mM KCl at 37° C. for 0.5 h. Fluorescence melting curves were determined with a Roche LightCycler 2 real-time PCR machine with excitation at 470 nm and detection at 530 nm.

[9] = test system: HCT116; test: MTT cytotoxicity assay, HCT116; assay type: cell-based, human; conditions: 72 h, Table 1b, read-out: GI50 (μM) HCT116
Protocol: (§1) Cytotoxicity Assays. […] The cells were incubated with the tested compounds for 72 hours in a five-dose assay ranging from 0.01 to 100 μM concentration. After drug treatments, MTT solution was added to test the percentage growth of tumor cells.
(§2) The compounds were incubated with the cells for 72 hours in a five-dose assay ranging from 0.01 to 100 μM concentration. At the end of the incubation, the MTT solution was added to test the percentage growth of tumor cells.
(§3) For the drug treatment experiments, the cancer cells were treated with the compounds (predissolved in DMSO) at a five-dose assay ranging from 0.01 to 100 μM concentration. […] After 4 h incubation, the formazan crystal formed in the well was dissolved with […] of DMSO for optical density reading at 570 nm. The GI50 value was calculated by nonlinear regression analysis (GraphPad Prism).

[10] = test system: CCRF-CEM; test: MTT cytotoxicity assay, CCRF-CEM; assay type: cell-based, human; conditions: 72 h, Table 1b
Protocol: as §1, §3

[11] = test system: DU145; test: MTT cytotoxicity assay, DU145; assay type: cell-based, human; conditions: 72 h, Table 1b, read-out: GI50 (μM) DU145
Protocol: as §1, §2, §3

[12] = test system: A549; test: MTT cytotoxicity assay, A549; assay type: cell-based, human; conditions: 72 h, Table 1b, read-out: GI50 (μM) A549
Protocol: as §1, §2, §3

[13] = test system: Huh7; test: MTT cytotoxicity assay, Huh7; assay type: cell-based, human; conditions: 72 h, Table 1b
Protocol: as §1, §3

[14] = molecular target: T2, Tdp1; conditions: reported in the background; cited from earlier work

For `COc1cc2c(=O)n(CCN(C)C)c3c4cc5c(cc4ccc3c2cc1OC)OCO5` [Compound 19a, 12-(2-(Dimethylamino)ethyl)-2,3-dimethoxy-[1,3]dioxolo[4′,5′:4,5]benzo[1,2-c]phenanthridin-13(12H)-one], the Top1-mediated unwinding effect [1] was “no Top1-mediated unwinding effect”, the γH2AX foci [2] was “γH2AX foci were induced” and the induction of apoptosis [3] was “significantly induce HCT116 cells apoptosis in a dose-dependent manner”. The “Tmax” value [4] was 1.17 ± 0.76 h, the body weight ([5]; 5 mg/kg i.p. daily) was “no obvious body loss” and the body weight ([5]; 10 mg/kg i.p. daily) was “Body weight loss was found”. The tumor volume ([5]; i.p. once every day) was “significantly reduced tumor volume in a dose-dependent manner”.
In the case of `COc1cc2c(cc1OC)-c1ccc3cc4c(cc3c1N(CCN(C)C)C2)OCO4` [Compound 26a, 2-(2,3-Dimethoxy-[1,3]dioxolo[4′,5′:4,5]benzo[1,2-c]phenanthridin-12(131)-yl)-N,N-dimethylethan-1-amine], the TOP1 inhibition [6] is reported as “+ (+, between 20% and 50% activity)”, the TDP1 inhibition [7] is reported as 0% and the “ΔTm (°C.) F10T” value [8] is reported as 1.0 °C. The GI50 [9] was 7.36 ± 3.55 µM, the GI50 [10] was 0.95 ± 0.14 µM and the “GI50 (μM) CCRF-CEM” value [10] was “submicromolar concentration”. It also gave a GI50 [11] of 1.93 ± 0.41 µM, a GI50 [12] of 6.68 ± 1.93 µM and a GI50 [13] of 7.78 ± 2.91 µM.
For `[Na+].[Na+].[Na+].[O]=[V]([O-])([O-])[O-]` [sodium orthovanadate], the Tdp1 inhibition [14] is given as “inhibition only at millimolar concentration”.
